The results in this text go back to patent US11312804B2, “Polymerizable compound, polymerizable composition, polymer, and photoresist composition” (JNC CORPORATION, priority 2018, dated 2022).

This data set in a line: Water solubility test: extraction from water into ethyl acetate, weight of residue. It counts as physicochemical. To be noted: for weight of the residue: 0.500 g dissolved in 10 mL water at room temperature, 10 mL ethyl acetate added, stirred 10 min, organic layer dried and concentrated. As for the experimental part: In 10 mL of water, 0.500 g of the compound represented by formula (14a-x) was dissolved at room temperature, and 10 mL of ethyl acetate was added thereto, and the resulting mixture was stirred for 10 min, and then the organic layer was dried over anhydrous sodium sulfate. The desiccant was filtered off, and then the filtrate was concentrated under reduced pressure. The weight of the residue was 0.101 g.
In 10 mL of water, 0.500 g of a compound represented by formula (15), namely, mevalonolactone was dissolved at room temperature, and 10 mL of ethyl acetate was added thereto, and the resulting mixture was stirred for 10 min, and then the organic layer was dried over anhydrous sodium sulfate. The desiccant was filtered off, and then the filtrate was concentrated under reduced pressure. Then weight of the residue was 0.080 g.

`C[C@H]1C(=O)OCC[C@@]1(C)O` [Compound 14a-x, α-methyl-mevalonolactone]: the “weight of the residue” value was 0.101 g. Further, the “water solubility compared with the compound used in Comparative Example 1” value (conclusion from ethyl acetate extraction test) is reported as “lower water solubility”.
For the compound `CC1(O)CCOC(=O)C1` (stereo not drawn) [Compound 15, mevalonolactone, reference compound], the “weight of the residue” value amounted to 0.080 g.
